One test deals with MCL1 (Homo sapiens, UniProt Q07820). The test can be described thus: MCL1 affinity assay (competition binding, qPCR readout). The following applies: recombinant MCL1, 11-point 3-fold dilution series. Put shortly:
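Kds derived from an 11-point 3-fold compound series measured by qPCR of protein eluted from ligand beads. Recombinant, DNA-tagged protein from E. coli or HEK-293 was mixed with compound and peptide-liganded beads in SeaBlock/PBS/Tween/DTT buffer for 1 hour at room temperature (0.9% DMSO).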

The target in the next test is BCL2 (Homo sapiens, UniProt P10415). The test can be described thus: BCL2 affinity assay (competition binding, qPCR readout). The note with it: recombinant BCL2, 11-point 3-fold dilution series. Here is the method:
(§1) Recombinant MCL1, BCL2 and BCXL proteins were prepared in either an E. coli host derived from the BL21 strain or in HEK-293 cells. The recombinant proteins were subsequently tagged with DNA for qPCR detection. Streptavidin-coated magnetic beads were treated for 30 minutes at room temperature with the respective biotinylated peptide ligands for each recombinant protein to generate affinity resins for the assays. The liganded beads were blocked with excess biotin and washed with blocking buffer (SeaBlock (Pierce), 1% BSA, 0.05% Tween 20, 1 mM DTT) to remove unbound ligand and to reduce nonspecific binding. Binding reactions were assembled by combining recombinant protein, liganded affinity beads, and test compounds in 1× binding buffer (20% SeaBlock, 0.17×PBS, 0.05% Tween 20, 6 mM DTT). Test compounds were prepared as 111X stocks in 100% DMSO. The compounds were then diluted directly into the assays such that the final concentration of DMSO was 0.9%. The assay plates were incubated at room temperature with shaking for 1 hour and the affinity beads were washed with wash buffer (1×PBS, 0.05% Tween 20). The beads were then re-suspended in elution buffer (1×PBS, 0.05% Tween 20, 0.5 μM non-biotinylated affinity ligand) and incubated at room temperature with shaking for 30 minutes. The recombinant protein concentration in the eluates was measured by qPCR. Kds were determined using an 11-point 3-fold compound dilution series with three DMSO control points.
Background: Quantitative PCR measures a nucleic acid by following its amplification.

Another test concerns the target BCLXL (Homo sapiens, UniProt Q07817). The experiment in a line: BCLXL affinity assay (competition binding, qPCR readout). The note with it: recombinant BCLXL, 11-point 3-fold dilution series. How it is done:
as §1

In test [1] the test system is drug-sensitive cell lines of Table 3. The experiment in a line: Cell line growth retardation assay, sensitive cohort. The class given is cell-based, Human. The following applies: for IC50: Homo sapiens, 144 h, arithmetic mean of IC50s over the sensitive cohort of Table 3, 6 days growth, read-out: AvgSen IC50; for Fold Diff: average IC50 of resistant cohort divided by average IC50 of sensitive cohort. The method in brief: (§2)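 Over 6 days of treatment at six concentrations (0.0032–10 μM), given after a 24 h post-seeding rest, population doublings were counted by imaging against a pre-dose baseline and compared with vehicle. Per-line IC50 values came from dose-response fits; cohort averages used arithmetic means, with sensitive/resistant grouping based on response to reference MCL1 inhibitors.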

In test [2] the test system is drug-resistant cell lines of Table 3. The experiment in a line: Cell line growth retardation assay, resistant cohort. The test is classed as cell-based, Human. The note with it: Homo sapiens, 144 h; arithmetic mean of IC50s over the resistant cohort of Table 3, 6 days growth; read-out: AvgRes IC50. The method in brief:
as §2

One may read the Kd as the constant that tells how readily two partners part at equilibrium. What is called IC50 is the point on the concentration scale where inhibition reaches its midpoint.

Chain of MCL1 (Q07820 whole entry): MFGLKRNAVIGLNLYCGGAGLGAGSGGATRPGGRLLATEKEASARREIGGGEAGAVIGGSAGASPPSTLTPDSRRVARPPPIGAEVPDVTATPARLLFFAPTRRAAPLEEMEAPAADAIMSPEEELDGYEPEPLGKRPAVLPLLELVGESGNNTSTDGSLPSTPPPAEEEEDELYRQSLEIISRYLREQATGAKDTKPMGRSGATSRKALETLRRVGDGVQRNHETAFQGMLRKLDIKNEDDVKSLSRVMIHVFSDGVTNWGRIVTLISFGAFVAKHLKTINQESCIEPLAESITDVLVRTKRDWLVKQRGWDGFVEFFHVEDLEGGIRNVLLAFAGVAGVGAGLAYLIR
Chain of BCL2 (P10415 whole entry): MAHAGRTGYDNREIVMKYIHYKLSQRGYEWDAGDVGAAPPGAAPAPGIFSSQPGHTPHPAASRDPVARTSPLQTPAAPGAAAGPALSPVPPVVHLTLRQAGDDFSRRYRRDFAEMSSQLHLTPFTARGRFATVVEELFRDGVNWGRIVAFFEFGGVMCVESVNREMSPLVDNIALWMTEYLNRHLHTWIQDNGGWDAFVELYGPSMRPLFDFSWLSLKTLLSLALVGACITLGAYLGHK
Chain of BCLXL (Q07817 whole entry): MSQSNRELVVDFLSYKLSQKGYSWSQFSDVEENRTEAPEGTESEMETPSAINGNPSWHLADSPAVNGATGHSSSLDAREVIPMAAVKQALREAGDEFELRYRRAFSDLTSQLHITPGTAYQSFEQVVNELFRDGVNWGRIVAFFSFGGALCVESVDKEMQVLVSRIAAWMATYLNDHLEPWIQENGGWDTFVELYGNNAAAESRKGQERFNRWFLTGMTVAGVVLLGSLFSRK

Regarding `Cc1c(-c2c(-c3ccc(F)c4ccoc34)ncc3snc(O[C@H](Cc4ccccc4OCc4ccnn4CC(F)(F)F)C(=O)O)c23)ccc(OCCN2CCN(C)CC2)c1Cl` (atropisomer, axis not shown) [Compound 14], the Kd at MCL1 was 101 to 500 nM; on BCL2, more than 1500 nM; on BCLXL, more than 1500 nM. Besides, the IC50 in test [1] is 1000 to 5000 nM; in test [2], more than 5000 nM. The “Fold Diff” value in test [1] was “− (“−” represents a fold difference less than 10)”.

As to `Cc1c(-c2c(-c3cccc4ccccc34)ncc3snc(O[C@H](Cc4ccccc4OCc4ccnn4CC(F)(F)F)C(=O)O)c23)ccc(OCCN2CCN(C)CC2)c1Cl` (atropisomer, axis not shown) [Compound 7], the Kd at MCL1, on BCL2 and on BCLXL was more than 1500 nM in each case. Also, the IC50 in test [1] and in test [2] was more than 5000 nM in each case. Moreover, in test [1], the “Fold Diff” value is given as “− (“−” represents a fold difference less than 10)”.

On to `COc1cccc(-c2ncc3snc(O[C@H](Cc4ccccc4OCc4ccnc(-c5ccccc5OC)n4)C(=O)O)c3c2-c2ccc(OC[C@H]3CCCN3C)c(Cl)c2C)c1` (atropisomer, axis not shown) [Compound 48], for which the figures for the Kd at MCL1, on BCL2 and at BCLXL were not above 100 nM, more than 1500 nM and more than 1500 nM, respectively.

Take `COc1cccc(Oc2ccc(-c3nccc(COc4ccccc4C[C@@H](Oc4nsc5cnc(C6CCC6)c(-c6ccc(OCCN7CCN(C)CC7)c(Cl)c6C)c45)C(=O)O)n3)cn2)c1` (atropisomer, axis not shown) [Compound 114]: the Kd on MCL1 was 101 to 500 nM. For the same compound, in test [1], the IC50 was 1000 to 5000 nM and the “Fold Diff” value is recorded as “− (“−” represents a fold difference less than 10)”. Further, in test [2], the IC50 is more than 5000 nM.

For `COc1cccc(-c2ncc3snc(O[C@H](Cc4ccccc4OCc4ccnc(-c5ccccc5S(C)(=O)=O)n4)C(=O)O)c3c2-c2ccc(OCCN3CCN(C)CC3)c(Cl)c2C)c1` (atropisomer, axis not shown) [Compound 68], the Kd at MCL1 is not above 100 nM. Moreover, in test [1], the half-inhibitory concentration (IC50) is 1000 to 5000 nM and the “Fold Diff” value is “− (“−” represents a fold difference less than 10)”. Moreover, the IC50 in test [2] was more than 5000 nM.

Take `COc1ccccc1-c1nccc(COc2ccccc2C[C@@H](Oc2nsc3cnc(-c4ccn(CC(C)C)n4)c(-c4ccc(OCCN5CCN(C)CC5)c(Cl)c4C)c23)C(=O)O)n1` (atropisomer, axis not shown) [Compound 38]: the Kd at MCL1 is not above 100 nM. Moreover, the results for the 50% inhibitory concentration (IC50) in test [1] and in test [2] were not above 1000 nM and more than 5000 nM, respectively. Further, the “Fold Diff” value in test [1] is “+ (“+” represents a fold difference of 10 or more)”.

Turning to `COc1ccccc1-c1nccc(COc2ccccc2C[C@@H](Oc2nsc3cnc(-c4cnn(CC(C)C)c4)c(-c4ccc(OCCN5CCN(C)CC5)c(Cl)c4C)c23)C(=O)O)n1` (atropisomer, axis not shown) [Compound 79], at MCL1, the Kd was in the range of 501 to 1500 nM. The half-maximal inhibitory concentration (IC50) in test [1] was not above 1000 nM; in test [2] it was 1000 to 5000 nM. Further, the “Fold Diff” value in test [1] is listed as “− (“−” represents a fold difference less than 10)”.

`Cc1cc(C#N)ccc1-c1nccc(COc2ccccc2C[C@@H](Oc2nsc3cnc(C4CCC4)c(-c4ccc(OCCN5CCN(C)CC5)c(Cl)c4C)c23)C(=O)O)n1` (atropisomer, axis not shown) [Compound 116]: the dissociation constant (Kd) on MCL1 is not above 100 nM. For the same compound, the IC50 was not above 1000 nM in test [1] and more than 5000 nM in test [2]. In test [1], the “Fold Diff” value is listed as “+ (“+” represents a fold difference of 10 or more)”.

Regarding `Cc1c(-c2c(C3CCC3)ncc3snc(O[C@H](Cc4ccccc4OCc4ccnc(C5CCC(F)(F)CC5)n4)C(=O)O)c23)ccc(OCCN2CCN(C)CC2)c1Cl` (atropisomer, axis not shown) [Compound 110], the Kd at MCL1 is not above 100 nM. In addition, the IC50 is not above 1000 nM in test [1] and more than 5000 nM in test [2]. Besides, the “Fold Diff” value in test [1] is reported as “+ (“+” represents a fold difference of 10 or more)”.

For `COc1ccccc1-c1nccc(COc2ccccc2C[C@@H](Oc2nsc3cnc(-c4ccc(F)cc4)c(-c4ccc(OCCC5CCN(C)CC5)c(Cl)c4C)c23)C(=O)O)n1` (atropisomer, axis not shown) [Compound 81], on MCL1, the Kd was not above 100 nM. Moreover, in test [1], the IC50 is 1000 to 5000 nM and the “Fold Diff” value was “− (“−” represents a fold difference less than 10)”. In test [2], the IC50 was more than 5000 nM.

Consider `Cc1c(-c2c(C3CCC3)ncc3snc(O[C@H](Cc4ccccc4OCc4ccnc(-c5ccncc5)n4)C(=O)O)c23)ccc(OCCN2CCN(C)CC2)c1Cl` (atropisomer, axis not shown) [Compound 74], for which the Kd at MCL1 was more than 1500 nM. Further, in test [1], the IC50 was more than 5000 nM and the “Fold Diff” value is “− (“−” represents a fold difference less than 10)”. Also, the IC50 in test [2] was more than 5000 nM.

As to `Cc1c(-c2c(C3CCC3)ncc3snc(O[C@H](Cc4ccccc4OCc4ccnc(-c5ccc(OCc6ccccc6)nc5)n4)C(=O)O)c23)ccc(OCCN2CCN(C)CC2)c1Cl` (atropisomer, axis not shown) [Compound 113], the Kd on MCL1 is more than 1500 nM. In addition, in test [1], the IC50 is more than 5000 nM and the “Fold Diff” value is “− (“−” represents a fold difference less than 10)”. In addition, the half-maximal inhibitory concentration (IC50) in test [2] is more than 5000 nM.

Consider `COc1cccc(-c2ncc3snc(O[C@H](Cc4ccccc4OCc4ccnc(-c5cc(F)ccc5OC)n4)C(=O)O)c3c2-c2ccc(OCCN3CCN(C)CC3)c(Cl)c2C)c1` (atropisomer, axis not shown) [Compound 67], for which, at MCL1, the Kd was not above 100 nM. In addition, in test [1], the IC50 is not above 1000 nM and the “Fold Diff” value is on record as “+ (“+” represents a fold difference of 10 or more)”. In addition, the half-inhibitory concentration (IC50) in test [2] is more than 5000 nM.

Turning to `COc1cccc(-c2ncc3snc(O[C@H](Cc4ccccc4OCc4ccnc(OCC(F)F)n4)C(=O)O)c3c2-c2ccc(OCCN3CCN(C)CC3)c(Cl)c2C)c1` [Compound 58], at MCL1, the Kd was not above 100 nM. Besides, in test [1], the IC50 is not above 1000 nM and the “Fold Diff” value is listed as “+ (“+” represents a fold difference of 10 or more)”. In addition, the IC50 in test [2] was more than 5000 nM.

Consider `Cc1c(-c2c(-c3cnn(C)c3)ncc3snc(O[C@H](Cc4ccccc4OCc4ccnn4CC(F)(F)F)C(=O)O)c23)ccc(OCCN2CCN(C)CC2)c1Cl` (atropisomer, axis not shown) [Compound 28], for which the results for the Kd on MCL1, on BCL2 and on BCLXL were 501 to 1500 nM, more than 1500 nM and more than 1500 nM, respectively.

In the case of `CCn1cc(-c2ncc3snc(O[C@H](Cc4ccccc4OCc4ccnc(-c5ccccc5OC)n4)C(=O)O)c3c2-c2ccc(OCCN3CCN(C)CC3)c(Cl)c2C)cn1` (atropisomer, axis not shown) [Compound 75], the Kd on MCL1 fell in the range of 101 to 500 nM. Further, the IC50 in test [1] and in test [2] was more than 5000 nM each time. In addition, the “Fold Diff” value in test [1] is “− (“−” represents a fold difference less than 10)”.

`COc1cccc(-c2ncc3snc(O[C@H](Cc4ccccc4OCc4ccnc(N5CCC(OC)CC5)n4)C(=O)O)c3c2-c2ccc(OCCN3CCN(C)CC3)c(Cl)c2C)c1` (atropisomer, axis not shown) [Compound 70]: at MCL1, the Kd is 101 to 500 nM. Also, in test [1], the IC50 is not above 1000 nM and the “Fold Diff” value is listed as “+ (“+” represents a fold difference of 10 or more)”. Moreover, the IC50 in test [2] is more than 5000 nM.

With `Cn1nc(-c2cc(CC3CCC3)c3c(O[C@H](Cc4ccccc4OCc4ccnn4CC(F)(F)F)C(=O)O)nsc3c2)c2ccc(Cl)cc21` [Compound 96], the Kd at MCL1 was more than 1500 nM. In addition, in test [1], the half-maximal inhibitory concentration (IC50) was more than 5000 nM and the “Fold Diff” value was “− (“−” represents a fold difference less than 10)”. The IC50 in test [2] is more than 5000 nM.

In the case of `COc1ccccc1-c1nccc(COc2ccccc2C[C@@H](Oc2nsc3cnc(C4CCC4)c(-c4ccc(OCCN5CCN(C)CC5)c(Cl)c4C)c23)C(=O)O)n1` (atropisomer, axis not shown) [Compound 36], at MCL1, the Kd was not above 100 nM. In test [1], the IC50 is not above 1000 nM and the “Fold Diff” value was “+ (“+” represents a fold difference of 10 or more)”. In addition, the IC50 in test [2] was more than 5000 nM.

For `COc1ccccc1C[C@@H](Oc1nsc2cnc(-c3cccc(F)c3)c(-c3ccc(OCCN4CCN(C)CC4)c(Cl)c3C)c12)C(=O)O` (atropisomer, axis not shown) [Compound 93], at MCL1, the Kd was 101 to 500 nM. Besides, in test [1], the IC50 fell in the range of 1000 to 5000 nM and the “Fold Diff” value was “− (“−” represents a fold difference less than 10)”. Moreover, the IC50 in test [2] is more than 5000 nM.

The record behind these values is patent US20230116602A1, “MCL1 INHIBITORS AND USES THEREOF” (California Institute of Technology, priority 2019, published 2023).
